Test results published in patent US9012655B2, “Antimicrobial/adjuvant compounds and methods” (Denouamed, Inc., priority 2011, dated 2015).
Converted amounts (≈) assume the structure as drawn.

What was measured:
[1] = tested on: Methicillin-Resistant Staph. aureus (MRSA); assay: MIC, NCCLS M7-A6 broth microdilution, MRSA; type: cell-based; settings: 16 to 20 h, 35 degrees Celsius; for MIC: Staphylococcus aureus, MRSA
Experimental: (§1) Susceptibilities to the compounds were determined using the National Committee for Clinical Laboratory Standards (NCCLS) M7-A6 broth microdilution method. Cation-adjusted Mueller-Hinton broth (Ca^2+, 25 μg/mL; Mg^2+, 12.5 μg/mL) microdilution panels were prepared to contain antimicrobial doubling dilution concentrations of an appropriate range. DMSO (dimethylsulfoxide) controls were incorporated into the panel to mimic the quantity of DMSO used in dissolving some of the compounds at the higher concentrations. Each final panel well volume was 100 μL with a bacterial inoculum of 5×10^5 CFU (colony forming units)/mL of the relevant bacterium. Panels were read following 16 to 20 h of incubation at 35 degrees Celsius in ambient air. The MIC (minimum inhibitory concentration) was defined as the lowest concentration of antimicrobial inhibiting visible growth.

[2] = tested on: E. coli D22; assay: MIC, NCCLS M7-A6 broth microdilution, E. coli D22; type: cell-based; settings: 35 degrees Celsius; for MIC: Escherichia coli, D22, 16 to 20 h; for MIC E coli D22: 16 to 20 h
Experimental: as §1

[3] = molecular target: AcpS enzyme (Escherichia coli, UniProt P24224); assay: Measurement of AcpS inhibition ([3H]acetyl-CoA incorporation into apo-ACP); type: biochemical; settings: % activity vs blank-subtracted counts; for activity at 50 µM / % AcpS activity at 50 uM: test compound 50 uM; for remaining activity at 500 µM / % AcpS activity @ 500 uM: test compound 500 uM
Experimental: [^3H]Acetyl-CoA was mixed as 1 volume of Perkin Elmer NET290 radiolabeled stock (e.g. 0.1 mCi/ml, 3.7 Ci/mmol in Na-acetate, pH 4.5-5.0=27 μM) with 1.2 volumes of 1 mM unlabelled acetyl-CoA (Sigma). Trichloroacetic acid was prepared as a 10% w/v solution. Bovine serum albumin was prepared as a 25 mg/ml solution in water. DTT was prepared as a 50 mM solution in water.
• 1. A standard reaction contained the following in a total volume of 10 μl:
• 2. Tubes were incubated at RT. [^3H]acetyl-CoA was added last to start the reaction. To stop the reaction, 2 μl was removed to a 1.5-ml microfuge tube containing 800 μl cold 10% TCA. Up to four time points were collected for each reaction, e.g. at 5 min, 10 min, 30 min, and 60 min. • 3. 20 μl of 25 mg/ml BSA was added to each tube, mixed and incubated on ice for 10 min, then centrifuged at 12,000 g for 5 min to form a pellet. Supernatant was removed using P1000. • 4. Each pellet was washed twice with 800 μl of cold 10% TCA each time, then centrifuged at 12,000 g for 5 min after each wash. The supernatant was discarded. Each pellet was resuspended in 50 μl of formic acid. The suspension was transferred to a scintillation vial and radioactivity was measured in 2 ml of liquid scintillation cocktail.
The random (stochastic) error in scintillation counting is proportional to the square root of the counts (not dpm) accumulated in the counting period; i.e. 10% for 100, 3.3% for 1,000, 1% for 10,000, etc. Provided radioactive counts (dpm) are in the thousands, the assay provides useful data. Results are reported in terms of % activity with respect to the blank-subtracted counts for working substrate. A % activity of less than about 40% is indicative of AcpS enzyme inhibition by the test compound at that concentration.

AcpS enzyme, sequence (P24224 whole entry): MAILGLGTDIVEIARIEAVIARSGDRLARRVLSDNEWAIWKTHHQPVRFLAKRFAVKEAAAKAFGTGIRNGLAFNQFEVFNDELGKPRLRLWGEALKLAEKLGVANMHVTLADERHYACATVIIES

Row | SMILES | MIC [1] | MIC [2] | activity at 50 µM [3] | remaining activity at 500 µM [3] | MIC MRSA [1] | MIC E coli D22 [2] | % AcpS activity @ 500 uM [3] | % AcpS activity at 50 uM [3]
1 | c1ccc2c(c1)oc1c(-c3cc(-c4nnn[nH]4)sc3-c3cccc4c3oc3ccccc34)cccc12 [DNM0542, 5-(4,5-Bis(dibenzo[b,d]furan-4-yl)thiophen-2-yl)-1H-tetrazole] | 2 µM (≈ 0.969 µg/mL) | > 125 µM | 9.58% | 0.7% | – | – | – | –
2 | Cc1ccccc1-c1cc(-c2nnn[nH]2)sc1-c1ccccc1C [DNM0531, 5-(4,5-Bis(2-methylphenyl)thiophen-2-yl)-1H-tetrazole] | 60 µM (≈ 19.9 µg/mL) | > 125 µM | 96.8% | 4.38% | – | – | – | –
3 | c1ccc(Oc2ccc(-c3ccc(-c4ccc(Oc5ccccc5)cc4)c(-c4nn[nH]n4)c3)cc2)cc1 [DNM0453] | – | – | – | – | 8 µM (≈ 3.86 µg/mL) | >125 µM | 23.76% | –
4 | Cc1ccc(-c2cc(-c3nn[nH]n3)cc(-c3ccc(C)c4ccccc34)c2)c2ccccc12 [DNM0461, 5-(3,5-Bis(4-methylnaphthalen-1-yl)phenyl)-2H-tetrazole] | 1 µM (≈ 0.427 µg/mL) | > 125 µM | 13.4% | 0.85% | – | – | – | –
5 | Cc1ccc(-c2cc(-c3ccc(Cl)cc3)cc(-c3nnn[nH]3)c2)c2ccccc12 [DNM0480, 5-(4′-Chloro-5-(4-methylnaphthalen-1-yl)biphenyl-3-yl)-1H-tetrazole] | 4 µM (≈ 1.59 µg/mL) | 125 µM (≈ 49.6 µg/mL) | 7.35% | 2.04% | – | – | – | –
6 | Cc1ccc(-c2cc(-c3nn[nH]n3)cc(-c3cc(Cl)ccc3N(C)C)c2)c2ccccc12 [DNM0514] | – | – | – | – | 4 µM (≈ 1.76 µg/mL) | >125 µM | 0.14% | 5.73%
7 | Cc1ccc(-c2cc(-c3nnn[nH]3)sc2-c2ccc(C)c(Cl)c2)cc1Cl [DNM0504, 5-(4,5-Bis(3-chloro-4-methylphenyl)thiophen-2-yl)-1H-tetrazole] | 125 µM (≈ 50.2 µg/mL) | 125 µM (≈ 50.2 µg/mL) | 7.33% | 0.16% | – | – | – | –
8 | c1ccc(-c2ccccc2-c2cc(-c3nnn[nH]3)sc2-c2ccccc2-c2ccccc2)cc1 [DNM0489, 5-(4,5-Di(biphenyl-2-yl)thiophen-2-yl)-1H-tetrazole] | 2 µM (≈ 0.913 µg/mL) | > 125 µM | 17.9% | 0% | – | – | – | –
9 | Clc1ccc(-c2cc(-c3ccc(Cl)cc3)cc(-c3nn[nH]n3)c2)cc1 [DNM0470, 5-(3,5-Bis(4-chlorophenyl)phenyl)-2H-tetrazole] | 4 µM (≈ 1.47 µg/mL) | 125 µM (≈ 45.9 µg/mL) | – | 27.7% | – | – | – | –
10 | Cc1ccc(-c2cc(-c3nnn[nH]3)sc2Cc2ccc(Cl)cc2)c2ccccc12 [DNM0577, 5-(5-(4-Chlorobenzyl)-4-(4-methylnaphthalen-1-yl)thiophen-2-yl)-1H-tetrazole] | 8 µM (≈ 3.34 µg/mL) | > 125 µM | 5.54% | 0.4% | – | – | – | –
11 | Cc1ccc(C2(c3cccc(Cl)c3)C=C(c3nnn[nH]3)SC2)c2ccccc12 (stereo not shown) [DNM0575, 5-(4-(5-Chlorophenyl)-4-(4-methylnaphthalen-1-yl)thiophen-2-yl)-1H-tetrazole] | 8 µM (≈ 3.24 µg/mL) | > 125 µM | 5.86% | 0.23% | – | – | – | –
12 | Clc1cccc(-c2ccccc2-c2cc(-c3nn[nH]n3)cc(-c3ccccc3-c3cccc(Cl)c3)c2)c1 [DNM0493] | – | – | – | – | 4 µM (≈ 2.08 µg/mL) | >125 µM | 2.7% | 25.28%
13 | CC(C)c1ccc(-c2cc(-c3nnn[nH]3)sc2-c2ccc(C(C)C)cc2)cc1 [DNM0512, 5-(4,5-Bis(4-isopropylphenyl)thiophen-2-yl)-1H-tetrazole] | 8 µM (≈ 3.11 µg/mL) | > 125 µM | 37.3% | 0.7% | – | – | – | –
14 | c1ccc(C2CC2)c(-c2cc(-c3nnn[nH]3)sc2-c2ccccc2C2CC2)c1 [DNM0570] | – | – | – | – | 15 µM (≈ 5.77 µg/mL) | 125 µM (≈ 48.1 µg/mL) | 0.19% | 33.7%
15 | CN(C)c1ccc(Cl)cc1-c1cc(-c2nn[nH]n2)cc(-c2cc(Cl)ccc2N(C)C)c1 [DNM0510] | – | – | – | – | 4 µM (≈ 1.81 µg/mL) | >125 µM | 0.12% | 8.4%
16 | Cc1ccc(-c2sc(-c3nnn[nH]3)cc2-c2ccc(Cl)cc2)c2ccccc12 [DNM0572, 5-(4-(4-Chlorophenyl)-5-(4-methylnaphthalen-1-yl)thiophen-2-yl)-1H-tetrazole] | 8 µM (≈ 3.22 µg/mL) | > 125 µM | 4.41% | 0.51% | – | – | – | –
17 | CC(C)c1ccccc1-c1cc(-c2nn[nH]n2)cc(-c2ccccc2C(C)C)c1 [DNM0532] | – | – | – | – | 60 µM (≈ 23 µg/mL) | >125 µM | 0.22% | 30.66%
18 | c1ccc(-c2cc(-c3nnn[nH]3)sc2-c2ccccc2-c2ccoc2)c(-c2ccoc2)c1 [DNM0560, 5-(4,5-Bis(2-(furan-3-yl)phenyl)thiophen-2-yl)-1H-tetrazole] | 15 µM (≈ 6.55 µg/mL) | > 125 µM | 63.6% | 0.06% | – | – | – | –
19 | COc1ccc(-c2cc(-c3nnn[nH]3)sc2-c2ccc(OC)c(Cl)c2)cc1Cl [DNM0565, 5-(4,5-Bis(3-chloro-4-methoxyphenyl)thiophen-2-yl)-1H-tetrazole] | 15 µM (≈ 6.5 µg/mL) | > 125 µM | 22.9% | 0.11% | – | – | – | –
20 | c1ccc(-c2cc(-c3nnn[nH]3)sc2-c2ccccc2)cc1 [DNM0535] | – | – | – | – | 125 µM (≈ 38 µg/mL) | >125 µM | 3.48% | 92.62%
21 | Cc1cc(Cl)ccc1-c1ccc(-c2ccc(Cl)cc2C)c(-c2nnn[nH]2)c1 [DNM0447, 5-(2,5-Bis(4-chloro-2-methylphenyl)phenyl)-1H-tetrazole] | 15 µM (≈ 5.93 µg/mL) | > 125 µM | 32.6% | 0.47% | – | – | – | –
22 | Cc1ccc(-c2cc(-c3nn[nH]n3)cc(-c3ccc(C)cc3Br)c2)c(Br)c1 [DNM0511] | – | – | – | – | 8 µM (≈ 3.87 µg/mL) | >125 µM | 0% | 14.36%
23 | Clc1ccc(-c2cc(-c3nn[nH]n3)cc(-c3ccccc3-c3ccccc3)c2)cc1 [DNM0479] | – | – | – | – | 2 µM (≈ 0.818 µg/mL) | >125 µM | 0.1% | 12.79%
24 | FC(F)(F)Oc1ccccc1-c1cc(-c2nnn[nH]2)sc1-c1ccccc1OC(F)(F)F [DNM0550, 5-(4,5-Bis(2-(trifluoromethoxy)phenyl)thiophen-2-yl)-1H-tetrazole] | 30 µM (≈ 14.2 µg/mL) | > 125 µM | 47.8% | 0.39% | – | – | – | –
25 | Cc1ccc(-c2cc(-c3nn[nH]n3)cc(-c3ccc(C)cc3-c3ccccc3)c2)c(-c2ccccc2)c1 [DNM0516] | – | – | – | – | 2 µM (≈ 0.957 µg/mL) | >125 µM | 5% | 32.01%
26 | c1ccc(-c2ccccc2-c2cc(-c3nn[nH]n3)cc(-c3ccccc3-c3ccccc3)c2)cc1 [DNM0464] | – | – | – | – | 1 µM (≈ 0.451 µg/mL) | >125 µM | 0.28% | 9.03%
27 | Cc1ccc(-c2cc(-c3nnn[nH]3)sc2-c2ccc(C)c(C)c2)cc1C [DNM0509, 5-(4,5-Bis(3,4-dimethylphenyl)thiophen-2-yl)-1H-tetrazole] | 15 µM (≈ 5.41 µg/mL) | > 125 µM | 31.1% | 0.2% | – | – | – | –
